Assay results taken from patent US20220064214A1, “NOVEL PEPTIDES AND USES THEREOF” (CENNA BIOSCIENCES INC., priority 2019, published 2022).
“And” between values parts separate entries of the source, which are not always exact repeats. Equal values may be shown once. Marks after values point to notes of the source that are not given here. Ends that are not written are not given here.

Experiments:
[1] = Delivery to brain in transgenic mice (brain concentrations); assay type: in vivo; conditions: SC administration
Procedure: Critical to the development of any therapeutic for diseases like AD is the requirement that it can be delivered to the brain. Delivery to brain and efficacy of P8 and 8M2D in reducing Aß was analyzed in the transgenic mice described in Section 6.3 above. […]

Aβ = assay: Reduction of Aβ in retinal cells differentiated from iPSC derived from Alzheimer's disease patients; assay type: cell-based
From the text: The accumulation of Aβ in the retina was studied in this example. Retinal cells were differentiated from induced pluripotent stem (iPSC) cells derived from Alzheimer's disease patients.

[2] = Pharmacokinetics study in rats, plasma; assay type: in vivo; conditions: rat; for plasma concentration: individual rats
Procedure: (§1) An in-vivo study was carried out in rats to determine the pharmacokinetics (PK) of peptides P8, 8M1D and 8M2D in plasma and CSF. Each peptide was assessed through two dosage routes, intravenous (IV) and subcutaneous (SC). Three rats were assigned to each dose group with each peptide. Total of twelve rats per peptide were used.
(§2) Blood was collected through jugular vein cannulas, and the samples were collected into tubes with K2EDTA. After centrifuging at a temperature of 2 to 8° C. at 4,000×g for 5 minutes, the resulting plasma was split into equal aliquots, frozen, and stored at −60 to −80° C. One aliquot was for PK analysis and the other was for Aβ analysis (see Example 4).

[3] = Pharmacokinetics study in rats, CSF; assay type: in vivo; set-up: CSF concentration, Mean IV / CSF concentration, Mean SC: unit not given here; conditions: rat; for CSF concentration, Mean IV: 10 mg/kg IV; for CSF concentration, Mean SC: 10 mg/kg SC
Procedure: as §1
CSF collection was performed by first anesthetizing animals at specified time points (see Table 5) with a mixture of 80 mg/kg ketamine and 8 mg/kg xylazine. The depth of anesthesia was monitored by toe pinches. CSF was collected via the cisterna magna (˜0.05 mL), and it was split into equal aliquots, frozen, and stored at −60 to −80° C.

Aβ40 = assay: Efficacy in reducing Aβ40 in rat plasma (ELISA); assay type: in vivo; conditions: 10 mg/kg SC; for reduction in Aβ40: rat plasma; for Percent Decrease in Aβ 40 in Rat Plasma: mean of 3 rats, negative = decrease
Procedure: as §2
Rats (n=3 per peptide) were administered with P8, 8M1D, or 8M2D (10 mg/kg) subcutaneously, and plasma were collected at 0, 6, 12, and 24 h after dosing and Aβ40 analysis was carried out by ELISA (Invitrogen).

time after dosing at which detectable in plasma ([2]; 10 mg/kg IV and SC): ≤ 2 h | plasma concentration ([2]; 10 mg/kg IV, 0 hr (pre-dose)): BQL | plasma concentration ([2]; 10 mg/kg IV, 0.167 hr, 10 mg/kg): 9,770 and 12,800 ^a and 11,800 ^a | plasma concentration ([2]; 10 mg/kg IV, 0.5 hr, 10 mg/kg, in ng/mL (unit assumed)): 2,340 and 2,080 and 2,710 | plasma concentration ([2]; 10 mg/kg IV, 1 hr, 10 mg/kg, in ng/mL (unit assumed)): 257 and 219 and 189 | plasma concentration ([2]; 10 mg/kg IV, 2 hr, 10 mg/kg, in ng/mL (unit assumed)): 26.3 and 22.7 and 18.9 | plasma concentration ([2]; 10 mg/kg IV, 4 hr, 10 mg/kg): 3.23 ^b and 3.18 ^b and 2.89 ^b | plasma concentration ([2]; 10 mg/kg IV, 6 hr, 10 mg/kg): 1.07 ^b and 0.794 ^b | plasma concentration ([2]; 10 mg/kg IV, 8 hr): BQL | plasma concentration ([2]; 10 mg/kg IV, 12 hr): BQL | plasma concentration ([2]; 10 mg/kg IV, 24 hr): BQL | plasma concentration ([2]; 10 mg/kg SC, 0 hr (pre-dose)): BQL | plasma concentration ([2]; 10 mg/kg SC, 0.167 hr, 10 mg/kg): 5,610 and 14,400 ^a and 11,900 ^a | plasma concentration ([2]; 10 mg/kg SC, 0.5 hr, 10 mg/kg, in ng/mL (unit assumed)): 3,030 and 7,010 and 7,250 | plasma concentration ([2]; 10 mg/kg SC, 1 hr, 10 mg/kg, in ng/mL (unit assumed)): 670 and 1,300 and 1,970 | plasma concentration ([2]; 10 mg/kg SC, 2 hr, 10 mg/kg, in ng/mL (unit assumed)): 105 and 191 and 245 | plasma concentration ([2]; 10 mg/kg SC, 4 hr, 10 mg/kg): 5.44 ^b and 9.41 ^b and 20.7 | plasma concentration ([2]; 10 mg/kg SC, 6 hr, 10 mg/kg): 1.18 ^b and 4.35 ^b and 9.33 ^b | plasma concentration ([2]; 10 mg/kg SC, 8 hr, 10 mg/kg): BQL and 1.32 ^b and 1.51 ^b | plasma concentration ([2]; 10 mg/kg SC, 12 hr, 10 mg/kg): BQL (2×) and 0.900 ^b | plasma concentration ([2]; 10 mg/kg SC, 24 hr): BQL | time after dosing at which detectable in CSF ([3]; 10 mg/kg IV and SC): ≤ 2 h | CSF concentration, Mean IV ([3]; 0 hr): 0 | CSF concentration, Mean IV ([3]; 0.5 hr): 42.4 | CSF concentration, Mean IV ([3]; 1 hr): 14.2 | CSF concentration, Mean IV ([3]; 2 hr): 4.89 | CSF concentration, Mean IV ([3]; 4 hr): 0 | CSF concentration, Mean IV ([3]; 8 hr): 0 | CSF concentration, Mean IV ([3]; 12 hr): 0 | CSF concentration, Mean IV ([3]; 24 hr): 0 | CSF concentration, Mean SC ([3]; 0 hr): 0 | CSF concentration, Mean SC ([3]; 0.5 hr): 79.4 | CSF concentration, Mean SC ([3]; 1 hr): 19.3 | CSF concentration, Mean SC ([3]; 2 hr): 23.3 | CSF concentration, Mean SC ([3]; 4 hr): 0 | CSF concentration, Mean SC ([3]; 8 hr): 0 | CSF concentration, Mean SC ([3]; 12 hr): 0 | CSF concentration, Mean SC ([3]; 24 hr): 0
Substance: DEEEDEEL-OH [P8, DEEEDEEL, reference compound]
delivery to the APPTg mouse brain (in words) [1]: in sufficient amounts to reduce Aß in the brain | production of Aβ in retinal cells in the presence of the peptide (in words) (Aβ): reduced | reduction in Aβ40 (Aβ40; 12 hr post dosing): about 22% | reduction in Aβ40 (Aβ40; 24 h post dosing): about 13% | Percent Decrease in Aβ 40 in Rat Plasma (Aβ40; 0 h): 0.00% | Percent Decrease in Aβ 40 in Rat Plasma (Aβ40; 6 h): −18.13% | Percent Decrease in Aβ 40 in Rat Plasma (Aβ40; 12 h): −22.70% | Percent Decrease in Aβ 40 in Rat Plasma (Aβ40; 24 h): −13.22%
